How the values were obtained:
[1] = tested on: acetylcholine (ACh) in CSF; experiment: Measurement of acetylcholine (ACh) in rat cerebrospinal fluid (CSF); assay type: in vivo; conditions: Fischer344 rat, oral 10 mg/kg once a day for three days, CSF 24 hours after administration, LC-MS
Description: Measurement of Acetylcholine (ACh) in Rat Cerebrospinal Fluid (CSF)
Thus, the changes in acetylcholine in CSF were measured in order to determine the changes in intracerebral acetylcholine by the test compounds.
(2) Compound Administration
In this study, Fischer344 male rats (Charles River Laboratories Japan, Inc.) with a body weight of about 150 to 250 g were used. The test compounds were orally administered to the rats once a day at 10 mg/kg for three days. The vehicle used was 0.01 mol/L hydrochloric acid.
At 24 hours after the administration of the vehicle and the test compounds, the CSF was collected from cistema magna in a tube containing AchE inhibitors under pentobarbital anesthesia. The collected CSF was centrifuged at 3500×g at 4° C. for 10 minutes and the supernatant was collected. The collected supernatant was frozen with liquid nitrogen, and then stored at −80° C.
(4) Measurement of Ach by LC-MS
To 10 μL of the CSF was added 50 μL of acetylcholine-d9 chloride (ACh-d9) at a final concentration of 0.34 nmol/L as an internal standard. […] The supernatant was collected and subjected to LC/MS […], and Ach was detected as precursor ion at m/z 146.050 and as product ion at m/z 87.071 and ACh-d9 as an internal standard was detected as precursor ion at m/z 155.088 and as product ion at m/z 87.000. […]

[2] = tested on: rat primary septal neuron culture; experiment: Measurement of acetylcholine (ACh) release in the rat primary septal neuron culture system in the presence of NGF; assay type: cell-based; conditions: rat primary septal neurons, with NGF, one day after compound addition, ACh by HPLC
From the text: Measurement of acetylcholine (ACh) release in the rat primary septal neuron culture system in the presence of NGF
(1) Rat Primary Septal Neuron Culture
The septal area was isolated from Sprague-Dawley (SD) rats (Charles River Laboratories Japan, Inc.) at a fetal age of 18 days, and cultured.
Specifically, fetuses were aseptically removed from pregnant rats under isoflurane anesthesia. The brain was extracted from each fetus, and immersed in ice-cooled L-15 medium (11415-064, Thermo Fisher Scientific). The septal area was dissected from the extracted brain under a stereoscopic microscope. The dissected septal area was subjected to enzyme treatment in an enzyme solution containing 0.25% trypsin (15050-065, Thermo Fisher Scientific) and 0.01% DNase (D5025-150KU, Sigma) at 37° C. for 30 minutes, thereby dispersing the cells. In this case, the enzyme reaction was terminated by adding inactivated horse serum (26050-088, Thermo Fisher Scientific). The enzyme-treated solution was centrifuged at 1000 rpm for 3 minutes, and the supernatant was removed. A medium in an amount of 10 mL was added to the obtained cell mass. The medium used was Dulbecco's Modified Eagle's Medium (044-29765, WAKO) supplemented with N2 supplement (17502-048, Thermo Fisher Scientific), 1 mM sodium pyruvate (11360-070, Thermo Fisher Scientific), and Penicillin-Streptomycin (15140-1221, Thermo Fisher Scientific). The cells of the cell mass to which the medium was added were redispersed by gentle pipetting, and then centrifuged again at 1000 rpm for 3 minutes, and the supernatant was removed. The medium in an amount of 10 mL was added to the obtained cell mass, and the cell dispersion was filtered through a 40-μm nylon mesh (Cell Strainer) to remove the cell mass, thereby obtaining a neuronal cell suspension. The neuronal cell suspension was diluted with the medium, and 10% inactivated bovine serum (26140-079, Thermo Fisher Scientific) and 10% inactivated horse serum were added. Thereafter, 100 μL/well of the suspension was seeded in a 96-well plate (354461, CORNING) pre-coated with poly-D-lysine so that the initial culture density was 1.4×10^5 cells/cm^2. After the seeded cells were cultured under 5% CO2-95% air in a 37° C. incubator for 2 days, the entire medium was replaced with 120 μL of fresh medium, and the cells were subsequently cultured for 5 days.
On the 7th day of culture, compound was added in the following manner. A solution of the test compound in DMSO was diluted with the medium so that the concentration was 10 times higher than the final concentration. NGF (450-01, PEPRO TECH, INC.) was prepared at 0.3 ng/mL. These two solutions were added each in an amount of 15 μL/well, and the mixture was mixed well. The final DMSO concentration was 0.1% or less. Moreover, only DMSO and NGF were added to the control group.
(3) ACh Release Measurement
One day after compound addition, an amount of ACh release was measured by HPLC in the following manner. A warmed buffer was added at 100 μL/well to the well after the medium was eliminated, and the buffer was immediately removed. Thereafter, a buffer to which 10 μm choline, 10 μm physostigmine, and 6 mM KCl were added was added at 120 μL/well. The buffer was prepared by adding 125 mM NaCl, 25 mM 4-(2-hydroxyethyl)-1-piperazineethanesulfonic acid, 1.2 mM KH2PO4, 1.2 mM MgSO4, 2.2 mM CaCl2 (2H2O), and 10 mM glucose to sterilized water, and the final pH of the solution was set to 7.4. After the 96-well plate to which the buffer was added was incubated under 5% CO2-95% air in a 37° C. incubator for 40 minutes, 80 μL of buffer was collected. An internal standard solution IPHC (5×10^−7 M) was added in an amount of 6 μL to the collected buffer, and the buffer was transferred to a tube for HPLC measurement and subjected to HPLC measurement. […]

Question: `CN1CCc2c(sc3nc4n(c(=O)c23)-c2ccc(F)cc2C(=O)N(C)C4)C1` [Example 1] was tested. Which “Amount (%) increased with respect to from the amount of ACh in CSF the vehicle administration group” value [1] did it give?
Answer: 160.0%

Question: What about the “Concentration (μM) showing a 20% or more increase from the amount of ACh in the control group” value [2] of the same molecule?
Answer: 0.1 µM

Question: What does the source list for `CN1CCc2c(sc3nc4n(c(=O)c23)-c2sccc2C(=O)N(C)C4)C1` [Example 3, 5,10-dimethyl-5,6,9,10,11,12-hexahydropyrido[4″,3″:4′,5′]thieno[2′,3′:4,5]pyrimido[1,2-a]thieno[3,2-f][1,4]diazepine-4,13-dione]?
Answer: Amount (%) increased with respect to from the amount of ACh in CSF the vehicle administration group [1]: 156.8%; Concentration (μM) showing a 20% or more increase from the amount of ACh in the control group [2]: 0.1 µM
